pKi: −log10 of the molar value. Where two headings read alike, the source gives them in different places.
Molecular target: T1, GSK-3β (AA 1-420) (Homo sapiens, UniProt P49841)
T1 construct: GSK-3β (AA 1-420)
Test: Ki determination for the inhibition of GSK-3, standard coupled enzyme system
Type: biochemical
Procedure: Final substrate concentrations in the assay were 20 μM ATP (Sigma Chemicals, St Louis, Mo.) and 300 μM peptide (HSSPHQS(PO3H2)EDEEE, American Peptide, Sunnyvale, Calif.). Reactions were carried out at 30° C. and 20 nM GSK-3β. Final concentrations of the components of the coupled enzyme system were 2.5 mM phosphoenolpyruvate, 300 μM NADH, 30 μg/ml pyruvate kinase and 10 μg/ml lactate dehydrogenase.
An assay stock buffer solution was prepared containing all of the reagents listed above with the exception of ATP and the test compound of interest. The assay stock buffer solution (175 μl) was incubated in a 96 well plate with 5 μl of the test compound of interest at final concentrations spanning 0.002 μM to 30 μM at 30 ° C. for 10 min. […] The reaction was initiated by the addition of 20 μl of ATP (final concentration 20 μM). Rates of reaction were obtained using a Molecular Devices Spectramax plate reader (Sunnyvale, Calif.) over 10 min at 30° C. The Ki values were determined from the rate data as a function of inhibitor concentration.

[1] = 20 μM ATP, 300 μM peptide, 20 nM GSK-3β, 30° C., read-out: Ki values for GSK-3

T1 sequence (P49841 whole entry, the tested form may be a part): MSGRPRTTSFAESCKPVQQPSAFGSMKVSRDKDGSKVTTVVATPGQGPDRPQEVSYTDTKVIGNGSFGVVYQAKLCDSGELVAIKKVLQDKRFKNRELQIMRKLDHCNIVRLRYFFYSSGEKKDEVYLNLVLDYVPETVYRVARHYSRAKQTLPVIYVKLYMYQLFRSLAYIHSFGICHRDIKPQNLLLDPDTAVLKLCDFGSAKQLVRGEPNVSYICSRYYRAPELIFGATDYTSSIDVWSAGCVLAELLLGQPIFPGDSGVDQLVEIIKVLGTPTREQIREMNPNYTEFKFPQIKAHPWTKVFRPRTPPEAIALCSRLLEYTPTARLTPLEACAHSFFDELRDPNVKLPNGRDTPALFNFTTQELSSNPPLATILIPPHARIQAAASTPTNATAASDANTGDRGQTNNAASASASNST

Row | Compound | pKi [1] | pKi
1 | COc1ccc(C2=NNC(=O)C2=NNc2ccc(-c3ccc(F)cc3)cc2)cc1 [Compound 82] | > 7.00 | 
2 | CCOc1cc(N2CCOCC2)c(OCC)cc1NN=C1C(=O)NN=C1c1ccc(OC)c(OC)c1 [Compound 111, 4-[(2,5-Diethoxy-4-morpholin-4-yl-phenyl)-hydrazono]-5-(3,4-dimethoxy-phenyl)-2,4-dihydro-pyrazol-3-one] | 6.00 to 7.00 | 
3 | COc1ccc(C2=NNC(=O)C2=NNc2ccc(Br)cc2)cc1OC [Compound 55] | > 7.00 | 
4 | N#Cc1ccc(C2=NNC(=O)C2=NNc2ccc(Cl)cc2)cc1 [Compound 75] | > 7.00 | 
5 | O=C1NN=C(c2cccnc2)/C1=N/Nc1ccccc1Cl [Compound 15] | 6.00 to 7.00 | 
6 | COc1cccc(C2=NNC(=O)/C2=N\Nc2cccc(Cl)c2)c1 [Compound 71] | > 7.00 | 
7 | CCn1c2ccccc2c2cc(NN=C3C(=O)NN=C3c3ccc(OC)cc3)ccc21 [Compound 217] | > 7.00 | 
8 | COc1ccc(C2=NNC(=O)C2=NNc2ccc(OC)c(-c3cc(OC)c(OC)c(OC)c3)c2)cc1OC [Compound 109, 5-(3,4-Dimethoxy-phenyl)-4-[(6,3′,4′,5′-tetramethoxy-biphenyl-3-yl)-hydrazono]-2,4-dihydro-pyrazol-3-one] | > 7.00 | 
9 | O=C1NN=C(c2ccncc2)/C1=N/Nc1ccccc1Cl [Compound 16] | 6.00 to 7.00 | 
10 | COc1ccc(C2=NNC(=O)C2=NNc2ccc3c(c2)C(=O)c2ccccc2-3)cc1 [Compound 206] | > 7.00 | 
11 | COc1ccc(C2=NNC(=O)C2=NNc2cccc(C(F)(F)F)c2)cc1 [Compound 66] | > 7.00 | 
12 | COc1ccc(C2=NNC(=O)C2=NNc2ccc(C(F)(F)F)cc2)cc1OC [Compound 64] | > 7.00 | 
13 | COc1cccc(C2=NNC(=O)/C2=N\Nc2ccc(Cl)cc2)c1 [Compound 49] | > 7.00 | 
14 | O=C1NN=C(c2ccccn2)C1=NNc1ccc(Cl)cc1 [Compound 17] | 6.00 to 7.00 | 
15 | O=C1NN=C(c2ccccc2)/C1=N/Nc1ccccc1Cl [Compound 12] | 6.00 to 7.00 | 
16 | COc1cccc(C2=NNC(=O)C2=NNc2cccc(Oc3ccccc3)c2)c1 [Compound 90] | > 7.00 | 
17 | COc1ccc(C2=NNC(=O)C2=NNc2ccc(Br)cc2)cc1 [Compound 54] | > 7.00 | 
18 | COc1cc(C2=NNC(=O)C2=NNc2ccc(OC)c(N3CCN(C)CC3)c2)ccc1OCc1ccccc1 [Compound 126, 5-(4-Benzyloxy-3-methoxy-phenyl)-4-{[4-methoxy-3-(4-methyl-piperazin-1-yl)-phenyl]-hydrazono}-2,4-dihydro-pyrazol-3-one] | > 7.00 | 
19 | COc1ccc(N/N=C2\C(=O)NN=C2c2ccncc2)cc1 [Compound 21] | > 7.00 | 
20 | COc1cccc(C2=NNC(=O)C2=NNc2ccc(Br)cc2)c1 [Compound 56] | > 7.00 | 
21 | COc1ccc(C2=NNC(=O)C2=NNc2ccc(OC)c(N3CCOCC3)c2)cc1OC [Compound 123, 5-(3,4-Dimethoxy-phenyl)-4-[(4-methoxy-3-morpholin-4-yl-phenyl)-hydrazono]-2,4-dihydro-pyrazol-3-one] | > 7.00 | 
22 | COc1ccc(N/N=C2\C(=O)NN=C2c2cccc(OC)c2)cc1 [Compound 50] | > 7.00 | 
23 | CCn1c2ccccc2c2cc(NN=C3C(=O)NN=C3c3ccc(OC)c(OC)c3)ccc21 [Compound 218] | > 7.00 | 
24 | COc1ccc(C2=NNC(=O)C2=NNc2ccc(OC)c(N3CCN(C)CC3)c2)cc1OC [Compound 125, 5-(3,4-Dimethoxy-phenyl)-4-{[4-methoxy-3-(4-methyl-piperazin-1-yl)-phenyl]-hydrazono}-2,4-dihydro-pyrazol-3-one] | > 7.00 | 
25 | COc1cccc(C2=NNC(=O)/C2=N\Nc2ccc(C#N)cc2)c1 [Compound 59] | > 7.00 | 
26 | COc1ccc(C2=NNC(=O)C2=NNc2cccc(-c3ccccc3)c2)cc1OC [Compound 204] | > 7.00 | 
27 | CCN(CC)c1ccc(N/N=C2\C(=O)NN=C2c2ccc(OC)cc2)cc1 [Compound 36] | > 7.00 | 
28 | COc1cc(N2CCOCC2)ccc1NN=C1C(=O)NN=C1c1ccc(OC)c(OC)c1 [Compound 40] | 6.00 to 7.00 | 

Row | Compound | pKi [1] | pKi
29 | O=C1NN=C(c2ccccc2)/C1=N/Nc1ccc(Cl)cc1 [Compound 25] | > 7.00 | 
30 | COc1cc(C2=NNC(=O)C2=NNc2ccc(N3CCOCC3)cc2OC)ccc1O [Compound 113, 5-(4-Hydroxy-3-methoxy-phenyl)-4-[(2-methoxy-4-morpholin-4-yl-phenyl)-hydrazono]-2,4-dihydro-pyrazol-3-one] | 6.00 to 7.00 | 
31 | O=C1NN=C(c2ccc(N3CCOCC3)cc2)C1=NNc1cccc(-c2ccccc2)c1 [Compound 205] | > 7.00 | 
32 | COc1ccc(NN=C2C(=O)NN=C2c2ccc(C#N)cc2)cc1 [Compound 76] | 6.00 to 7.00 | 
33 | COc1ccc(C2=NNC(=O)C2=NNc2ccc([N+](=O)[O-])cc2)cc1 [Compound 77] | > 7.00 | 
34 | COc1ccc(NN=C2C(=O)NN=C2c2ccc3c(c2)OCO3)cc1 [Compound 48] | > 7.00 | 
35 | COc1ccc(C2=NNC(=O)C2=NNc2ccc3c(c2)C(=O)c2ccccc2-3)cc1OC [Compound 207] | > 7.00 | 
36 | COc1ccc(N/N=C2\C(=O)NN=C2c2cccnc2)cc1 [Compound 20] |  | > 7.00
37 | COc1ccc(C2=NNC(=O)C2=NNc2ccc(C(F)(F)F)cc2)cc1 [Compound 63] | > 7.00 | 
38 | O=C1NN=C(c2ccccn2)/C1=N/Nc1ccccc1Cl [Compound 14] | 6.00 to 7.00 | 
39 | COc1ccc(N/N=C2\C(=O)NN=C2c2ccccn2)cc1 [Compound 26] | 6.00 to 7.00 | 
40 | O=C1NN=C(c2ccccc2F)C1=NNc1ccc(Cl)cc1 [Compound 27] | 6.00 to 7.00 | 
41 | COc1ccc(C2=NNC(=O)C2=NNc2cccc(C(F)(F)F)c2)cc1OC [Compound 67] | > 7.00 | 
42 | O=C1NN=C(c2ccc(N3CCOCC3)cc2)C1=NNc1ccc2c(c1)C(=O)c1ccccc1-2 [Compound 208] | > 7.00 | 
43 | COc1ccc(NN=C2C(=O)NN=C2c2ccccc2F)cc1 [Compound 33] | 6.00 to 7.00 | 
44 | COc1cccc(C2=NNC(=O)C2=NNc2ccc(Oc3ccccc3)cc2)c1 [Compound 87] | > 7.00 | 
45 | COc1cc(C2=NNC(=O)C2=NNc2ccc(OC)c(Br)c2)ccc1O [Compound 225] | > 7.00 | 
46 | O=C1NN=C(c2cccnc2)C1=NNc1ccc(Cl)cc1 [Compound 18] | > 7.00 | 
47 | O=C1NN=C(c2ccc3c(c2)OCO3)C1=NNc1ccc(Cl)cc1 [Compound 45] | > 7.00 | 
48 | COc1ccc(C2=NNC(=O)C2=NNc2cccc(Oc3ccccc3)c2)cc1OC [Compound 89] | > 7.00 | 
49 | O=C1NN=C(c2ccncc2)C1=NNc1ccc(Cl)cc1 [Compound 24] | > 7.00 | 
50 | COc1ccc(C2=NNC(=O)/C2=N\Nc2ccc(C#N)cc2)cc1 [Compound 57] | > 7.00 | 
51 | COc1ccc(C2=NNC(=O)/C2=N\Nc2ccc(N(C)C)cc2)cc1 [Compound 51] | > 7.00 | 
52 | COc1cccc(C2=NNC(=O)C2=NNc2cccc(C(F)(F)F)c2)c1 [Compound 68] | > 7.00 | 
53 | COc1ccc(NN=C2C(=O)NN=C2c2cc(OC)c(OC)c(OC)c2)cc1N1CCOCC1 [Compound 124, 4-[(4-Methoxy-3-morpholin-4-yl-phenyl)-hydrazono]-5-(3,4,5-trimethoxy-phenyl)-2,4-dihydro-pyrazol-3-one] | > 7.00 | 
54 | COc1cccc(C2=NNC(=O)/C2=N\Nc2ccc(N(C)C)cc2)c1 [Compound 53] | > 7.00 | 
55 | COc1ccc(C2=NNC(=O)/C2=N\Nc2cccc(Cl)c2)cc1 [Compound 69] | > 7.00 | 

Reference: patent US6916798B2, “Inhibitors of GSK-3 and uses thereof” (Vertex Pharmaceuticals Incorporated, priority 2001, dated 2005)
